Some test systems named below: A498 renal; BT-549 breast; TK-10 renal; ACHN renal; SR leukemia; COLO 205 colon; SW-620 colon; T-47D breast; NCI-H23 lung; 786-0 renal; CAKI-1 renal; KM12 colon; HCT-15 colon; HL-60(TB) leukemia; NCI-H460 lung; SF-539 CNS; HOP-62 NSCLC; U251 CNS; HOP-92 NSCLC.
Common to all, as to assay: NCI tumour cell line growth inhibition, 48 h

Molecules are shown by their SMILES.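 Step 1: Grow cells in 96-well plates. Step 2: Expose to compound for 48 hours at 5 concentrations. Step 3: Interpolate endpoints linearly; if unreached, use highest concentration. At the TGI there is no net growth.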

Turning to `O=c1cc(CNC2CC3CCC2C3)[nH]c(=O)[nH]1` (stereo not given), the TGI with A498 renal, in the experiment with BT-549 breast, in the experiment with TK-10 renal, in the experiment on ACHN renal, in the experiment on SR leukemia and in the experiment with COLO 205 colon was more than 100 µM throughout. Besides, the TGI in the experiment with SW-620 colon, in the experiment on T-47D breast, in the experiment on NCI-H23 lung, in the experiment with 786-0 renal, in the experiment on CAKI-1 renal and with KM12 colon was more than 100 µM each time. In addition, the TGI in the experiment on HCT-15 colon, in the experiment on HL-60(TB) leukemia, in the experiment on NCI-H460 lung, with SF-539 CNS, in the experiment with HOP-62 NSCLC and in the experiment on U251 CNS was more than 100 µM throughout.

Consider `Cc1ccc(/C=C2\Cc3cc(C)c(C)cc3C2=O)c(C(=O)O)c1`, for which the TGI in the experiment with A498 renal is 61.3 µM; with BT-549 breast it was 82.6 µM; with TK-10 renal, more than 100 µM; with ACHN renal, more than 100 µM; in the experiment with SR leukemia it was more than 100 µM; in the experiment with SW-620 colon, more than 100 µM. In addition, the TGI in the experiment with T-47D breast, in the experiment on 786-0 renal, in the experiment on CAKI-1 renal, in the experiment on KM12 colon, with HCT-15 colon and in the experiment on HL-60(TB) leukemia was more than 100 µM throughout. In addition, the TGI is more than 100 µM in the experiment on NCI-H460 lung, 74.7 µM in the experiment with SF-539 CNS, more than 100 µM in the experiment on HOP-62 NSCLC and more than 100 µM in the experiment with U251 CNS.

Consider `COc1ccc(-n2c(C)nc3ccc(NC4OC(CO)C(O)C(O)C4O)cc3c2=O)cc1` (stereo not given), for which the TGI in the experiment with A498 renal, in the experiment on BT-549 breast, in the experiment with TK-10 renal, in the experiment with ACHN renal, with SR leukemia and in the experiment on COLO 205 colon was more than 100 µM each time. The TGI in the experiment with SW-620 colon, with T-47D breast, with NCI-H23 lung, with 786-0 renal, with CAKI-1 renal and in the experiment on KM12 colon was more than 100 µM in each case. Further, the TGI with HCT-15 colon, with HL-60(TB) leukemia, in the experiment with NCI-H460 lung, in the experiment on HOP-62 NSCLC and in the experiment with U251 CNS was more than 100 µM throughout.

For the molecule `O=C1CSC(c2ccccc2O)N1c1ccc(Oc2ccc(Cl)cc2)c(Cl)c1` (stereo not given), the TGI with HOP-92 NSCLC was 39.1 µM; in the experiment on BT-549 breast, 34.9 µM; in the experiment on TK-10 renal, more than 100 µM; in the experiment with ACHN renal it was 94 µM; in the experiment on SR leukemia, 40.2 µM; with COLO 205 colon, 35 µM. The TGI in the experiment with SW-620 colon is more than 100 µM; in the experiment on T-47D breast, 46.8 µM; in the experiment on NCI-H23 lung, 46.6 µM; with 786-0 renal, 36.4 µM; in the experiment on CAKI-1 renal it was 74 µM; with KM12 colon it was 35.7 µM. In addition, the TGI with HCT-15 colon came out at 46.9 µM; in the experiment on HL-60(TB) leukemia it was 51.2 µM; with NCI-H460 lung, 43.6 µM; in the experiment with SF-539 CNS, 32.9 µM; in the experiment on HOP-62 NSCLC, 42.3 µM; in the experiment with U251 CNS, 39.5 µM.

In the case of `COc1cc(C(=O)O)c(-c2cc3c(cc2C=O)OCO3)c(OC)c1OC`, the TGI in the experiment with HOP-92 NSCLC, in the experiment on BT-549 breast, in the experiment with TK-10 renal, with ACHN renal, in the experiment on SR leukemia and with COLO 205 colon was more than 10 µM in each case. For the same molecule, the TGI with SW-620 colon, with T-47D breast, in the experiment with NCI-H23 lung, in the experiment on 786-0 renal, in the experiment with CAKI-1 renal and with KM12 colon was more than 10 µM each time. Also, the TGI with HCT-15 colon, with HL-60(TB) leukemia, in the experiment with SF-539 CNS, with HOP-62 NSCLC and with U251 CNS was more than 10 µM in each case.

Regarding `CN1CCC/C1=C1/C(=O)N(c2ccccc2)N=C1c1ccc[nH]1`, the TGI in the experiment with A498 renal, in the experiment on BT-549 breast, in the experiment with TK-10 renal, in the experiment on ACHN renal, in the experiment on SR leukemia and in the experiment with COLO 205 colon was more than 100 µM in each case. For the same molecule, the TGI in the experiment on SW-620 colon, with T-47D breast, in the experiment with NCI-H23 lung, in the experiment on 786-0 renal, in the experiment with CAKI-1 renal and in the experiment on KM12 colon was more than 100 µM in each case. Also, the TGI in the experiment with HCT-15 colon, with HL-60(TB) leukemia, in the experiment with NCI-H460 lung, in the experiment with HOP-62 NSCLC and with U251 CNS was more than 100 µM in each case.

As for `C[C@H](NC(=O)CNC(=O)CCCCCC(=O)NCC(=O)N[C@@H](C)C(=O)OCc1ccccc1)C(=O)OCc1ccccc1`, the TGI in the experiment with HOP-92 NSCLC, with BT-549 breast, with TK-10 renal, in the experiment with ACHN renal, in the experiment on SR leukemia and in the experiment with COLO 205 colon was more than 100 µM in each case. Further, the TGI with SW-620 colon, in the experiment with T-47D breast, with NCI-H23 lung, in the experiment on 786-0 renal, with CAKI-1 renal and in the experiment with KM12 colon was more than 100 µM in each case. Moreover, the TGI in the experiment on HCT-15 colon, in the experiment on SF-539 CNS, in the experiment with HOP-62 NSCLC and in the experiment on U251 CNS was more than 100 µM in each case.

As to `O=C(/C=C(\Nc1ccccc1O)c1ccc(Br)cc1)C(Cl)(Cl)Cl`, the TGI is 15.4 µM in the experiment on HOP-92 NSCLC; 28.5 µM with BT-549 breast; 19.1 µM in the experiment with TK-10 renal; 14.9 µM in the experiment on ACHN renal; 36.7 µM in the experiment on SR leukemia; 22.1 µM in the experiment on COLO 205 colon. The TGI with SW-620 colon was found to be 16.5 µM; in the experiment on T-47D breast, 20.2 µM; in the experiment with NCI-H23 lung, 26.1 µM; with 786-0 renal, 27.6 µM; in the experiment with CAKI-1 renal it was 20.7 µM; with KM12 colon it was 13.9 µM. The TGI was found to be 25.9 µM with HCT-15 colon; 9.39 µM in the experiment on HL-60(TB) leukemia; 12.9 µM in the experiment with NCI-H460 lung; 27.1 µM in the experiment on SF-539 CNS; 31.6 µM in the experiment on HOP-62 NSCLC; 15.4 µM in the experiment with U251 CNS.

Regarding `CSc1c(C#N)c(S)n(-c2ccc(Cl)cc2)c(=O)c1C#N`, the TGI in the experiment on A498 renal, with BT-549 breast, in the experiment on TK-10 renal, in the experiment on SR leukemia, in the experiment with COLO 205 colon and with SW-620 colon was more than 100 µM throughout. In addition, the TGI in the experiment with T-47D breast, in the experiment on NCI-H23 lung, in the experiment with 786-0 renal, with CAKI-1 renal, in the experiment on KM12 colon and in the experiment with HCT-15 colon was more than 100 µM in each case. In addition, the TGI in the experiment on HL-60(TB) leukemia, in the experiment on NCI-H460 lung, with SF-539 CNS and in the experiment with U251 CNS was more than 100 µM in each case.

On to `Nc1c(Cl)cc(-c2nc3ccccc3s2)cc1Cl`, for which the TGI in the experiment with HOP-92 NSCLC, in the experiment on BT-549 breast, in the experiment with TK-10 renal, with ACHN renal, with SR leukemia and in the experiment with COLO 205 colon was more than 100 µM each time. Besides, the TGI with SW-620 colon, in the experiment with T-47D breast, in the experiment on 786-0 renal, with KM12 colon, with HCT-15 colon and with HL-60(TB) leukemia was more than 100 µM in each case. Further, the TGI in the experiment with NCI-H460 lung, in the experiment with SF-539 CNS, in the experiment with HOP-62 NSCLC and in the experiment on U251 CNS was more than 100 µM each time.

Consider `CC(=O)N(CC(=O)C(=O)NNc1ccoc1)c1ccc(Cl)cc1`, for which the TGI in the experiment on HOP-92 NSCLC, in the experiment on BT-549 breast, in the experiment on TK-10 renal, in the experiment with ACHN renal, with SR leukemia and with COLO 205 colon was more than 100 µM each time. In addition, the TGI in the experiment with SW-620 colon, with T-47D breast, with NCI-H23 lung, with 786-0 renal, with CAKI-1 renal and with KM12 colon was more than 100 µM throughout. The TGI with HCT-15 colon, with NCI-H460 lung, in the experiment on SF-539 CNS, in the experiment on HOP-62 NSCLC and in the experiment with U251 CNS was more than 100 µM each time.

In the case of `Cc1ccc(/N=N/C(=NNC(=O)c2ccc(C)cc2)c2ccc(N(C)C)cc2)cc1`, the TGI with HOP-92 NSCLC was 80.2 µM; in the experiment with BT-549 breast it was 62.4 µM; in the experiment on TK-10 renal, more than 100 µM; in the experiment with ACHN renal, 92.4 µM; in the experiment on SR leukemia it was 45.1 µM; in the experiment on COLO 205 colon, 31.1 µM. In addition, the TGI in the experiment with SW-620 colon was more than 100 µM; in the experiment with T-47D breast, more than 100 µM; in the experiment with NCI-H23 lung it was 69.3 µM; in the experiment with 786-0 renal it was more than 100 µM; in the experiment on CAKI-1 renal it was 48.8 µM; in the experiment with KM12 colon it was 37 µM. The TGI was 91.2 µM with HCT-15 colon; 72.1 µM with HL-60(TB) leukemia; 80.3 µM in the experiment on NCI-H460 lung; more than 100 µM with SF-539 CNS; more than 100 µM with U251 CNS.

Take `CN(CCNC(=S)c1cn(C)c2c1ccc1ccccc12)CCNC(=S)c1cn(C)c2c1ccc1ccccc12`: the TGI in the experiment on HOP-92 NSCLC, in the experiment with BT-549 breast, with TK-10 renal, in the experiment on ACHN renal, in the experiment with SR leukemia and in the experiment with COLO 205 colon was more than 100 µM in each case. Further, the TGI is more than 100 µM in the experiment with SW-620 colon; 28.6 µM with T-47D breast; more than 100 µM in the experiment with NCI-H23 lung; more than 100 µM with 786-0 renal; more than 100 µM with CAKI-1 renal; more than 100 µM with KM12 colon. The TGI with HCT-15 colon, with NCI-H460 lung, in the experiment on SF-539 CNS, with HOP-62 NSCLC and with U251 CNS was more than 100 µM throughout.

The values above are taken from PubChem BioAssay (NCI).
